Values quoted from earlier work in patent US8920373B2, “Reduced volume formulation of glatiramer acetate and methods of administration” (Teva Pharmaceutical Industries, Ltd., priority 2009, dated 2014).

Test system: RRMS subjects

## glatiramer acetate
human, in vivo
  Patients reporting Immediate Post-Injection Reaction (IPIR): 31%
  Proportion of patients reporting injection-site reactions at least once: 70%
Largest controlled study
  Reduction of relapse rate versus placebo: 32%
  Relapse rate: 1.34
Over 9 months of treatment
  Median cumulative number of Gd-enhancing lesions: 11 lesions
